In patent US8575214B2, “MGlu 2/3 agonists” (Eli Lilly and Company, priority 2012, dated 2013):

Legend:
human mGlu3 receptor = molecular target: T1, human mGlu3 receptor (Homo sapiens, UniProt Q14832); experiment: Human mGlu3 agonist FLIPR assay; format: cell-based; details: AV-12 cells expressing human mGlu3, EAAT1 and Gα15; relative EC50; ±52.5 SEM, n=8; read-out: EC50 in the hmGlu3 FLIPR assay
T1 construct: expressed in transfected cells; host or cells: AV-12 cells (Syrian hamster fibroblasts), co-transfected with rat EAAT1 and Galpha15
T1 sequence (Q14832 23-879): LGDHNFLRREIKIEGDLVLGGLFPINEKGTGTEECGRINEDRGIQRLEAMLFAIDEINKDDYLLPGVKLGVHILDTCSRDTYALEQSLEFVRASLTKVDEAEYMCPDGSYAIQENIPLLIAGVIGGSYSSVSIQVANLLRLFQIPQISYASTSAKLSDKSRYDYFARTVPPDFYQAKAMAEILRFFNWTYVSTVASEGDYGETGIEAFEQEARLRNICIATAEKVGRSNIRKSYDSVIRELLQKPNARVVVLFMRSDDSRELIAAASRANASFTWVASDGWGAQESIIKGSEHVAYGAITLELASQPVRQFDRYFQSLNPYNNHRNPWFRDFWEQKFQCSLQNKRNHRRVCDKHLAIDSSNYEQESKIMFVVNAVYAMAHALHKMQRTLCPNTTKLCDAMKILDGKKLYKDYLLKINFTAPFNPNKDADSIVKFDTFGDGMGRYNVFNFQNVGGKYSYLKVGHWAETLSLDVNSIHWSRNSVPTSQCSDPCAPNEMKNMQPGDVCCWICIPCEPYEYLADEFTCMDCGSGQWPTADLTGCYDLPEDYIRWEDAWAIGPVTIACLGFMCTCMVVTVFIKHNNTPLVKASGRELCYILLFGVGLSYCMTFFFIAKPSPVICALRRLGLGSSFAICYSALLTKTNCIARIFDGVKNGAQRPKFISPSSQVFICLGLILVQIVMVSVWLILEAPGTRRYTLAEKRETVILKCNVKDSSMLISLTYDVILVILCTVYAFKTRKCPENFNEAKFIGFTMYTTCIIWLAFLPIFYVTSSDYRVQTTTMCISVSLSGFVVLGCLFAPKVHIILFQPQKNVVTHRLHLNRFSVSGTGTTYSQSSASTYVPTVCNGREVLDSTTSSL
Description: (§1) AV-12 cell lines, derived from Syrian Hamster fibroblasts and stably expressing the human mGlu2 or mGlu3 receptor and co-transfected with the rat glutamate transporter EAAT 1 (Excitatory Amino Acid Transporter 1) and the Gα15 subunit, are used for these studies. The expression of Gα15 allows Gi-coupled receptors to signal through the phospholipase C pathway, resulting in the ability to measure receptor activation by a fluorometric calcium response assay. […] Intracellular calcium levels are monitored before and after the addition of compounds using a Fluorometric Imaging Plate Reader (FLIPR, Molecular Devices). […] Results are analyzed using Prism v4.03 (GraphPad Software). […] After taking an initial 5-sec fluorescent read on the FLIPR instrument, a compound of the invention is added to the cell plate (50 μL per well). […] The compound effect is measured as maximal minus minimal peak heights in relative fluorescent units (RFUs) corrected for basal fluorescence measured in the absence of glutamate. […] Agonist effects are quantified as percent stimulation induced by compound alone relative to the maximal glutamate response. All data are calculated as relative EC50 values using a four-parameter logistic curve fitting program (ActivityBase v5.3.1.22).

human mGlu2 receptor = molecular target: T2, human mGlu2 receptor (Homo sapiens, UniProt Q14416); experiment: Human mGlu2 agonist FLIPR assay; format: cell-based; details: AV-12 cells expressing human mGlu2, EAAT1 and Gα15; relative EC50; ±5.9 SEM, n=3; read-out: EC50 in the hmGlu2 FLIPR assay
T2 construct: expressed in transfected cells; host or cells: AV-12 cells (Syrian hamster fibroblasts), co-transfected with rat EAAT1 and Galpha15
T2 sequence (Q14416 19-872): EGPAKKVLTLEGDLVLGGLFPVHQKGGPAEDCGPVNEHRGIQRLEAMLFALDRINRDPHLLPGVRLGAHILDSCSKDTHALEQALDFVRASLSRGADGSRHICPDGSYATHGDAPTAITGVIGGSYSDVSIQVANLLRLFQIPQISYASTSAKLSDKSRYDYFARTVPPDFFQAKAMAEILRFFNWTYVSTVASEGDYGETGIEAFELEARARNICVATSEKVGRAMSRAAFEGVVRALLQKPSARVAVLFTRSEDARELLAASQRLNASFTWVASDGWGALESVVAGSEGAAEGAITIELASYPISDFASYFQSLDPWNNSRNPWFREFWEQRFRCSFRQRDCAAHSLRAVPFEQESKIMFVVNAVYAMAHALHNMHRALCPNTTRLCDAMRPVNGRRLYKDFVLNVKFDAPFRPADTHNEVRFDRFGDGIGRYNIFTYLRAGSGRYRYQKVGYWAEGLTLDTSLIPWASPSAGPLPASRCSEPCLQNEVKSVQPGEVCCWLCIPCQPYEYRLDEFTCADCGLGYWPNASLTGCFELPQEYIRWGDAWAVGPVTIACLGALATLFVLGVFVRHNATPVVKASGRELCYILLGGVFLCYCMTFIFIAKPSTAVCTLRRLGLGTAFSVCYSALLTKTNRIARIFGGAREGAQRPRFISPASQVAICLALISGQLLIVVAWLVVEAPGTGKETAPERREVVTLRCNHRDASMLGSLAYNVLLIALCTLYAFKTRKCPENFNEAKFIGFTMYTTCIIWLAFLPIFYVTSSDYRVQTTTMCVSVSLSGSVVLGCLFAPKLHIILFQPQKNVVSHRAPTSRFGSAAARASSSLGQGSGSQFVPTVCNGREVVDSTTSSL
Description: as §1

Male Fischer F-344 rats = experiment: Attenuation of stress-induced hyperthermia in rats; format: in vivo; details: rat, 1-hr pretreatment, relative to vehicle response
Description: In many anxiety disorders, hyperthermia occurs as part of the pathology and is considered a symptom of the disease. Compounds which attenuate stress-induced hyperthermia in animals are believed to be useful in treating anxiety disorders in humans. Generalized anxiety disorder and post traumatic stress disorder are among the disorders that may be treated with such compounds. The conventional and minimally-invasive method for analyzing stress-induced hyperthermia is by measuring body temperature, and stress-induced increases in body temperature, via rectal thermometer. Male Fischer F-344 rats (Harlan, Indianapolis, Ind., USA) weighing between 275-350 g are tested. All animals are individually-housed with food and automated water available ad libitum, and maintained on a 12 h light/dark cycle (lights on at 06:00). Animals are fasted for approximately 12-18 hours before the experiment, which is conducted during the light phase. Rats are dosed intraperitoneal (IP) in a dose volume of 1 mL/kg with compounds of the invention in the range of 0.3, 1, 3, and 10, mg/kg. […]
After the pretreatment period, rats are taken individually to a brightly lit adjacent room where baseline body temperatures are determined by insertion of a rectal probe lubricated with mineral oil. Body temperature is assessed using a […] […] Ten minutes later a second body temperature measurement is recorded (T2). […]

male Sprague-Dawley rats = experiment: Reversal of persistent pain induced by formalin injection; format: in vivo; details: ip, dosed 1 hour prior to intraplantar formalin, rat
[1] = test system: male, Sprague-Dawley rats; experiment: Reversal of phencyclidine (PCP)-induced hyperlocomotor activity in rats; format: in vivo, rat
Description: Motor activity is monitored by placing individual male, Sprague-Dawley (Harlan, Indianapolis, Ind.) rats in transparent, plastic shoe-box cages of the dimensions 45×25×20 cm, with 1 cm depth of wood chips as bedding, and a metal grill on top of the cage. Motor monitors (Kinder Scientific) consist of a rectangular rack of 12 photobeams arranged in an 8×4 formation, (or a high density grouping of 22 in a 15×7 pattern) at a height of 5 cm, with a second rack (for measuring rearing behaviors) at a height of 15 cm. The shoe box cage is placed inside of these racks, with the racks on a 3 foot high tabletop in an isolated room. A compound of the invention (active) is dosed (intraperitoneal route) within a range of 0.3-10 mg/kg, 30 minutes prior to a 5 mg/kg challenge dose of phencyclidine (PCP). A compound of the invention (prodrug) is orally dosed within a range of 0.3-30 mg/kg, in overnight fasted rats, 4 hours prior to a 5 mg/kg challenge dose of PCP. On the test day, rats are placed in the test cage and allowed to acclimate for 30 minutes prior to PCP challenge; rats are monitored for an additional 60 minutes following PCP administration.
Data analysis and ED50 calculations are conducted using GraphPad Prism (San Diego, Calif. USA). Power analyses have determined that 8-10 rats per group are needed to have appropriate statistical power for detecting treatment differences (power=0.8). A one-way analysis of variance (ANOVA) with a post-hoc Dunnett's multiple comparison test is conducted on the total 60 minute locomotor activity. ED50 calculations are performed using non-linear regression curve fitting on percent reversal transformed data for each dose.

hPepT1 = molecular target: T3, hPepT1 (Homo sapiens, UniProt P46059); experiment: In vitro PepT1 GlySar inhibition screen and IC50 determination; format: cell-based; details: PepT1 transiently transfected HeLa cells
T3 construct: expressed in transfected cells; host or cells: HeLa cells (ATCC), transient transfection with PepT1 DNA using FuGene6
T3 sequence (P46059 1-708): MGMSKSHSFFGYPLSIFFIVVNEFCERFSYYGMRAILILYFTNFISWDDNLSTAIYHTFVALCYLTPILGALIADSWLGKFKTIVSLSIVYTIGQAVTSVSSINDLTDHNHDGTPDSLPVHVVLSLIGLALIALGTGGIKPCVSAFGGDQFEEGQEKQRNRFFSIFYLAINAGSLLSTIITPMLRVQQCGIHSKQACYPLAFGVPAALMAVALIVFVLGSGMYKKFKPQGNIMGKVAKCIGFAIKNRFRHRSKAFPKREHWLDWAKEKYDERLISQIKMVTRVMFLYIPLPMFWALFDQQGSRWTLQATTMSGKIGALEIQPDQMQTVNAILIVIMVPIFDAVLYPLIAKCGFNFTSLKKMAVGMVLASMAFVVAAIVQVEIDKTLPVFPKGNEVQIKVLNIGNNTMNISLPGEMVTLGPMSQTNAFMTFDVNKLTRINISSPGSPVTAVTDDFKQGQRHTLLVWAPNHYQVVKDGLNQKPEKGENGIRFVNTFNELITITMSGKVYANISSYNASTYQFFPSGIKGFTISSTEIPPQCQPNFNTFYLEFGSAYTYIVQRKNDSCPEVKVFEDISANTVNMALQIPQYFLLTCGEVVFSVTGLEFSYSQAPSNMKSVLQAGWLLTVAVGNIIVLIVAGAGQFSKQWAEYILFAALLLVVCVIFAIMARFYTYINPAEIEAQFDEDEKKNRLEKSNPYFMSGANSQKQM
Experimental: HeLa cells, […], (American Type Culture Collection) are grown in Hyclone Medium (Invitrogen, Cat# SH30243) containing 10% fetal bovine serum (FBS), 0.1 mM non essential amino acids (NEAA), and 100 units/mL penicillin with 100 μg/mL streptomycin at 37° C. in a 5% CO2 humidified atmosphere. The cell line is used for up to 40 passages and then discarded. Frozen cells in 1 ml vials are thawed in water bath for 1-2 minutes and added to 5 mL of cell medium at 37° C. Each of the T-flasks is provided with 8.5 mL of the fresh medium and 1.5 mL of the cell stock. Cells are passaged twice during a week. This is achieved by rinsing the flasks with 10 mL of phosphate buffered saline-ethylene diaminetetra acetic acid (PBS-EDTA), adding 2 mL of trypsin for 2-5 minutes, to detach the cells, and adding 8 mL of fresh medium to inhibit further activity of trypsin. Each new flask receives a combination of 8.5 mL of fresh medium and 1.5 mL of cell stock, in order to obtain 1:6 cell dilution. Cells are incubated at 37° C., until ready for the uptake study.
Cells that are 70-80% confluent in the T-flasks are plated 1 day prior to the transfection procedure. The flask with the cell stock is treated with PBS-EDTA and trypsin to detach the cells, and transfection medium is used from this point. Transfection medium consists of Dulbecco's Modified Eagle Medium (DMEM)+NEAA. To each well, 0.5 mL of the cell mixture is added (1.3×10^5 is the desired cell concentration) and the cells are incubated at 37° C. overnight. Twenty four hours before the assay, cells are transfected with PEPT1. Transfection mixture is prepared by mixing 600 μL of serum free transfection medium, 18 μL of FuGene6 (Roche Diagnostics), and 11 μg of the PepT1 DNA. The transfection reagent-DNA complex is incubated for 20 minutes and 24 μL of the reagent-DNA complex is added to each well.
J. Pharm. Exper Ther. 310:437-445). […] Uptake media consists of 140 mM NaCl, 5.4 mM KCl, 1.8 mM CaCl2, 0.8 mM MgSO4, 5 mM Glucose, 25 mM tris(hydroxymethyl)aminomethane buffer (TRIS). The solution is then brought to pH 6.0 using 2-(N-morpholino)ethanesulfonic acid. The incubation volume is 500 μL and is performed at room temperature for 3 minutes. To stop the uptake at the conclusion of the incubation time, the uptake media is aspirated off of the cell monolayer and 500 μL of ice cold PBS added to the well. The cells are washed 3 times with 500 μL of room temperature PBS without Ca^+2 and Mg^+2. The cells are then lysed with 300 μL of 1% Triton X100 H2O solution. […] A no inhibitor control is established and the percent inhibition of each prodrug is calculated with respect to this control.
The incubation and sampling procedures are exactly the same as the PepT1 screen described above.

[2] = 1 h, 10 µM, pH 7.4
Experimental: Frozen human duodenum intestinal homogenates (1:2 tissue:buffer ratio using 100 mM Tris Phosphate buffer, pH 7.4) are obtained from Celsius In Vitro Technologies (Baltimore, Md.) that were both phenylmethylsulphonylfluoride (PMSF) and EDTA free.
All original tissue collections are performed at 4° C. and immediately frozen at −70° C. Human intestinal homogenates are thawed and diluted to a final protein concentration of 0.5 mg/mL in 100 mM PBS buffer, pH 7.4 immediately prior to the incubations.
Incubations are conducted in 96-well plates and all prodrugs are run in duplicate on each day. Stock prodrug solutions are prepared in water at a concentration of 1 mM. A 200 μL aliquot of 0.5 mg/mL intestinal homogenate and 196 μL of 100 mM PBS buffer are placed in a 96-well plate in a 37° C. water bath. Using a 96-well pipettor, 4 μL of the 1 mM prodrug solution is transferred into the homogenate. Immediately after addition of the prodrug (time zero) and after 1 hour incubation, 50 μL samples of the incubation mixture are removed using an automated disposable simultaneous 96 well pipettor and added directly to 200 μL of methanol quench solution containing 100 ng/mL of Internal Standard. The samples are then centrifuged at 3500 rpm for 5 minutes at 10° C. The supernatant (200 μL) is transferred to a final 96 well PCR plate and sealed for analysis by LC/MS/MS.
Concentrations of hydrolyzed active metabolite in the incubation mixtures are determined using LC/MS/MS detection on a Sciex API 4000 quadrapole mass spectrometer with Analyst version 1.4.2, TurbolonSpray, positive ionization, and Selected Reaction Monitoring (SRM). […]
Averages and standard deviations are calculated using Microsoft® Office Excel® 2007. Amount of hydrolysis is determined as a molar percentage of active metabolite formed relative to prodrug concentration added.

[3] = both, human, pH 7.4
Experimental: Liver S9 fractions are obtained from Xenotech LLC (Lenexa, Mo.). The lot is from a pool of two donors, one male and one female. The liver S9 fraction is prepared and diluted using a homogenization buffer consisting of 50 mM Tris, pH 7.4 at 4° C. and 150 mM potassium chloride without EDTA. Prodrugs are incubated in the liver homogenate for 2 hours at 37° C., after which the concentration of active metabolite is determined by LC/MS/MS. Hydrolysis of Clopidogrel to Clopidogrel Carboxylic Acid is utilized as an assay positive control.
To ensure hydrolysis is not due to chemical instability, prodrugs are also incubated with PBS buffer alone without liver S-9.
A mobile phase gradient is utilized starting mobile phase ratio A/B of 99.9/0.1 and finishing at 1/99.

Row | EC50 (human mGlu3 receptor) | EC50 (human mGlu2 receptor) | IC50 (hPepT1; 0.0625 to 25 mM, read-out: hPepT1 [3H]Gly-Sar uptake inhibition IC50) | inhibition at 5000 µM (hPepT1; pH 6.0, 3 minutes, read-out: hPepT1 [3H]Gly-Sar uptake inhibition at 5 mM) | human intestinal hydrolysis relative to Internal Prodrug A [2] | Hydrolysis of Clopidogrel to Clopidogrel Carboxylic Acid (positive control) [3] | Compound | T35 (dose producing a 35% reduction in stress-induced hyperthermic response) (Male Fischer F-344 rats) | ED50 (male Sprague-Dawley rats) | ED50 ([1]; 0.5 h, i.p., 30 minutes prior to 5 mg/kg PCP, rat) | ED50 ([1]; Rattus norvegicus, p.o., overnight fasted rats, 4 hours prior to 5 mg/kg PCP)
1 | 0.285 µM | 0.039 µM | – | – | – | – | N[C@@]1(C(=O)O)CC2(CC2)[C@H]2[C@H](C(=O)O)[C@H]21 [Example 2, (1S,2S,5R,6S)-2-Aminospiro[bicyclo[3.1.0]hexane-4,1′-cyclopropane]-2,6-dicarboxylic acid] | 0.57 mg/kg | 0.7 mg/kg | 1.46 mg/kg | –
2 | – | – | 1980 µM | 89% | 36% | – | C[C@H](N)C(=O)N[C@@]1(C(=O)O)CC2(CC2)[C@H]2[C@H](C(=O)O)[C@H]21.Cl [Example 5, (1S,2S,5R,6S)-2-[[(2S)-2-Aminopropanoyl]amino]spiro[bicyclo[3.1.0]hexane-4,1′-cyclopropane]-2,6-dicarboxylic acid hydrochloride] | 6.4 mg/kg | – | – | 2.95 mg/kg
3 | – | – | – | – | – | 73.0% | COC(=O)[C@H](c1ccccc1Cl)N1CCc2sccc2C1 [Clopidogrel] | – | – | – | –
